Reference: patent US7863321B2, “Anti-cancer combinations” (Cancer Research Technology Limited, priority 2001, dated 2011)
Structures can show the parent of a compound that is named as a salt. Where two headings read alike, the source gives them in different places. Marks after values point to notes of the source that are not given here.

Tests used:
MDAH-Mca-4 tumours = assay type: in vivo, C3H/HeN mice; conditions: for DMF: Dose Modifying Factor = gradient with DMXAA (80 μmol/kg)/gradient without DMXAA; for growth delays at their MTDs: chemotherapy drug alone at MTD; for Slope of dose/response: growth delay vs dose, linear regression; for single agent activity against MDAH-Mca-4 tumour: doses up to MTD
Procedure: (§1) Compounds: A stock solution of DMXAA, synthesised in the Auckland Cancer Society Research Centre, was prepared in phosphate-buffered saline, protected from light and stored frozen. Cisplatin (Sigma Chemical Co., St. Louis, Mo.) was dissolved in 0.9% saline. Stock solutions of carboplatin and 5-fluorouracil (Bristol Myers Squibb, Sermonita, Italy) and cyclophosphamide (Mead Johnson Oncology Products, Princeton, N.J.) were diluted with sterile water. […] All compounds were administered to mice by i.p. injection at 0.01 ml/g bodyweight.
(§2) Animals and Tumours: Murine mammary carcinoma MDAH-Mca-4 tumours were grown from stocks stored in liquid nitrogen at the sixth transplant generation. Tumours (eighth transplant generation when used) were grown from 20 μl of cell suspension (7 mg packed cells), inoculated i.m. (intramuscular) in the right gastrocnemius muscle of female C3H/HeN mice (22-25 g at the time of treatment). Mice were randomised to treatment which commenced when the tumour+leg diameter reached 10-11 mm (0.5-0.7 g tumour).
(§3) Host Toxicity and Antitumour Activity: Mice were treated with chemotherapeutic drugs at a range of doses, at 1.33-fold increments, up to the expected MTD (maximum tolerated dose, as estimated in pilot experiments or from the literature). Toxicity was assessed as lethality, and body weight loss measured four days after treatment. Any animals becoming moribund were terminated and treated as drug-related deaths in the analysis. The diameter of the tumour-bearing leg was measured 3 times per week after treatment. Antitumour activity was assessed from the tumour growth delay, defined as the difference in time to reach the endpoint of 13 mm (1.5 g tumour) for treated and control groups. Responses were classed as cures if animals were free of evident tumour 120 days after treatment. The statistical significance of tumour growth inhibition was tested by ANOVA using SAS for Windows, with Dunnett's test to evaluate p-values for differences between treatment groups. In experiments with substantial numbers of cures (free of tumour for >120 days after treatment), statistical significance was tested by Kruskal-Wallis non-parametric analysis of variance using SAS for Windows, and the difference between treatment and control groups by Dunn's test using Sigmastat v2.0. The gradient and standard error of dose-response curves was determined by linear regression using Sigmastat, and the DMF (Dose Modifying Factor) calculated as the gradient with DMXAA/gradient without DMXAA.

in vivo [1] = experiment: in vivo
Procedure: as §1, §2, §3

[2] = Pharmacokinetics of carboplatin (platinum by ICP-MS) and DMXAA (HPLC) in plasma and tumour; conditions: plasma; DMXAA 80 μmol/kg i.p.; (% CV)
Procedure: (§4) Pharmacokinetics: Female C3H/HeN mice bearing MDAH-Mca-4 tumours (0.5-0.7 g) were injected i.p. with carboplatin (316 μmol/kg), DMXAA (80 μmol/kg), or simultaneously received carboplatin and DMXAA, at the same doses. […] Groups of 2-5 mice were used for each time point.
(§5) HPLC analysis of DMXAA: Concentrations of DMXAA in plasma were determined as follows. Aliquots of plasma (50 μl) were treated with 1 ml of ice-cold acetonitrile:methanol (3:1 v/v), centrifuged, and the resulting supernatants evaporated using a Speed-Vac solvent concentrator (Savant Instruments, NY). The residues were dissolved in 200 μl of 10 mM ammonium acetate buffer (pH 5) and 25 μl was analysed by HPLC using a HP1100 system with diode array detector (278 nm) and fluorescence detector. The column used was a 3.2 mm×150 mm C8 5 μm column (Alltima Associates Inc., Deerfield, Ill.) and a flow rate of 0.7 ml/min, with a mobile phase of 16% acetonitrile (v/v) in 10 mM ammonium acetate buffer (pH 5). The retention time for DMXAA was 7.3 min. […] The intra- and inter-assay precision and accuracy gave coefficients of variation <7%, and an average recovery of 70%. The lower sensitivity limit of detection by fluorescence (signal:noise ratio of 3) was 0.1 μM. […]

[3] = test system: PSN1 pancreatic tumour xenografts; experiment: PSN1 xenograft tumour volume tripling and doubling time; conditions: i.v., DMXAA 20 mg/kg, gemcitabine 240 mg/kg, female MF1 nude mice; for PSN1 volume doubling times, Median: control 3.2; for PSN1 volume tripling times, Median: control 4.9
tumour blood flow = conditions: Phase I clinical trials, well-tolerated doses; cited from earlier work
in vivo [4] = conditions: female, C3H/HeN, mouse, plasma, ip, 80 μmol/kg
Procedure: as §4, §5

[5] = chemotherapy drug alone, ± standard error of the slope
[6] = co-administered with DMXAA 80 μmol/kg
[7] = chemotherapy drug co-administered with DMXAA 80 μmol/kg, i.p.
[8] = female, C3H/HeN, mouse, in vivo, ip, MTD
[9] = chemotherapy drug alone, i.p., mice bearing MDAH-Mca-4 tumours
[10] = female, C3H/HeN, mouse, in vivo, ip
[11] = DMXAA alone at 80 μmol/kg, i.p.

SMILES | DMF (MDAH-Mca-4 tumours) | growth delays at their MTDs (MDAH-Mca-4 tumours) [days] | Slope of dose/response (MDAH-Mca-4 tumours; [5]) | Slope of dose/response (MDAH-Mca-4 tumours; [6]) [days/µmol/kg] | % body weight change at 4 days (in vivo [1]; chemotherapy drug alone, i.p.) [%] | % body weight change at 4 days (in vivo [1]; [7]) [%] | MTD (in vivo [1]; [8]) [µmol/kg] | single agent activity against MDAH-Mca-4 tumour (MDAH-Mca-4 tumours; chemotherapy drug alone) | other results
O=c1[nH]cc(F)c(=O)[nH]1 [5-fluorouracil, 5-fluoro-2,4(1H,3H)-pyrimidinedione] | 0.5 ± 0.2 | ~10 | 0.0051 ± 0.001^a days/μmol/kg | 0.0027 ± 0.001 | −8.5 ± 0.8 | −14.1 ± 1.5 | 1780 |  | 
N.N.O=C([O-])C1(C(=O)[O-])CCC1.[Pt+2] [Carboplatin, platinum, diammine [1,1-cyclobutanedicarboxylato(2-)-0,0′]-, (SP-4-2)] | 3.4 ± 2.3 |  | 0.0094 ± 0.0035 days/µmol/kg | 0.032 ± 0.010 | −5.6 ± 1.5 | −8.5 ± 1.4 |  | essentially inactive | MTD (in vivo [1]; [9]): 316 µmol/kg; MTD (in vivo [1]; [7]): 316 µmol/kg
N.N.[Cl][Pt][Cl] [Cisplatin] | 1.8 ± 1.2 | ~10 | 0.19 ± 0.06 days/µmol/kg | 0.35 ± 0.12 | −9.5 ± 1.4 | −14.4 ± 2.3 |  |  | MTD (in vivo [1]; [9]): 42.1 µmol/kg; MTD (in vivo [1]; [7]): 42.1 µmol/kg
O=P1(N(CCCl)CCCl)NCCCO1 (centres unmarked) [Cyclophosphamide, 2-[bis(2-chloroethyl)amino]tetrahydro-2H-13,2-oxazaphosphorine-2-oxide monohydrate] | 2.7 ± 0.3 | ~10 | 0.0062 ± 0.0001 days/µmol/kg | 0.0167 ± 0.0013 | −0.8 ± 1.3 | −9.2 ± 1.4 |  |  | MTD at 4 days (in vivo [1]; [10]): ≥ 1340 µmol/kg
Cc1ccc2c(=O)c3cccc(CC(=O)O)c3oc2c1C [DMXAA, 5,6-dimethylxanthenone-4-acetic acid] |  |  |  |  |  |  |  |  | Vmax [2]: 63 (6.1) μm hr^−1; mean tumour growth delays (range) (MDAH-Mca-4 tumours; [11]): 3.5 to 8.3 days; tumour growth delay, overall mean (MDAH-Mca-4 tumours; [11]): 6.6 ± 0.6 days; PSN1 volume doubling times, Treated-Control [3]: 0.4 days; PSN1 volume tripling times, Treated-Control [3]: 1.1 days; PSN1 volume doubling times, Median [3]: 3.6 days; PSN1 volume tripling times, Median [3]: 6.0 days; tumour blood flow by dynamic MRI (tumour blood flow): significant reduction in tumour blood flow; Km (in vivo [4]): 220 µM
COc1cccc2c1C(=O)c1c(O)c3c(c(O)c1C2=O)C[C@@](O)(C(=O)CO)C[C@@H]3O[C@H]1C[C@H](N)[C@H](O)[C@H](C)O1 [Doxorubicin, (8S,10S)-10-[(3-amino-2,3,6-trideoxy-a-L-lyxo-hexopyranosyl)oxy]-8-glycolyl-7,8,9,10-tetrahydro-6,8,11-trihydroxy-1-meth-oxy-5,12-naphthacenedione hydrochloride] | 2.5 ± 1.1 | ~10 | 0.42 ± 0.10 days/µmol/kg |  | −3.9 ± 0.6 | −5.5 ± 1.2 | 23.7 |  | MTD (in vivo [1]; [10]): 17.8 µmol/kg
COc1cc([C@@H]2c3cc4c(cc3[C@@H](O[C@@H]3O[C@@H]5CO[C@@H](C)O[C@H]5[C@H](O)[C@H]3O)[C@H]3COC(=O)[C@H]23)OCO4)cc(OC)c1O [Etoposide, 4′-demethylepipodophyllotoxin-9-[4,6-0-(R)-ethylidene-(beta)-D-glucopyranoside]] | 4.7 ± 2.9 |  | 0.030 ± 0.010 days/µmol/kg | 0.14 ± 0.04 | −2.0 ± 1.7 | −6.5 ± 3.3 | ≥ 75 | essentially inactive | 
CC[C@]1(O)C[C@H]2CN(CCc3c([nH]c4ccccc34)[C@@](C(=O)OC)(c3cc4c(cc3OC)N(C=O)[C@H]3[C@@](O)(C(=O)OC)[C@H](OC(C)=O)[C@]5(CC)C=CCN6CC[C@]43[C@@H]65)C2)C1 [Vincristine] | >7^c |  | -0.0 ± 1.3 days/µmol/kg | 14.1 ± 5.4 | −7.0 ± 1.2 | −10.0 ± 1.4 |  | essentially inactive | MTD (in vivo [1]; female, C3H/HeN, mouse, in vivo, ip, MTD, chemotherapy drug alone, mice bearing MDAH-Mca-4 tumours): 1 µmol/kg; MTD (in vivo [1]; female, C3H/HeN, mouse, in vivo, ip, MTD, chemotherapy drug co-administered with DMXAA 80 μmol/kg): 1 µmol/kg
Nc1ccn([C@@H]2O[C@H](CO)[C@@H](O)C2(F)F)c(=O)n1 [gemcitabine, 2′-deoxy-2′,2′-difluorocytidine monohydrochloride (b-isomer)] |  |  |  |  |  |  |  |  | PSN1 volume doubling times, Treated-Control [3]: 7.5 days; PSN1 volume tripling times, Treated-Control [3]: 9.0 days; PSN1 volume doubling times, Median [3]: 9.7 days; PSN1 volume tripling times, Median [3]: 13.9 days
